{"source": "patent US8754057B2", "about": "“Inhibition of apoptosis-specific eIF-5A(eIF-5A1″) with antisense oligonucleotides and siRNA as anti-inflammatory therapeutics” (Senesco Technologies, Inc., priority 2003, dated 2014)", "system": "lamina cribrosa cell line #506", "assay": "TUNEL labeling of siRNA-transfected LC cells treated with TNF-α and camptothecin", "assay_type": "cell-based, human", "conditions": "LC #506, TNF-α and camptothecin 24 h", "description": "Lamina cribrosa cell line #506 cells were seeded at 7500 cells per well onto an 8-well culture slide. Three days later the LC cells were transfected with either apoptosis-specific eIF-5A siRNA #1 (SEQ ID NO:30) or control siRNA #5 (SEQ ID NO:34). 72 hours after transfection, the transfected cells were treated with 10 ng/ml TNF-α plus 50 μM camptothecin. Twenty-four hours later the cells were stained with Hoescht 33258 and DNA fragmentation was evaluated in situ using the terminal deoxynucleotidyl transferase-mediated dUTP-digoxigenin nick end labeling (TUNEL) method. Panel A represents the slide observed by fluorescence microscopy using a fluorescein filter to visualize TUNEL-labeling of the fragmented DNA of apoptotic cells. Panel B represents the same slide observed by through a UV filter to visualize the Hoescht-stained nuclei. The results are representative of two independent experiments. All pictures were taken at 400 times magnification.\nTransfected cells that had been treated with TNF-α and camptothecin for 24 hours were stained with Hoescht 33258 in order to determine the percentage of cells undergoing apoptosis. Briefly, cells were fixed with a 3:1 mixture of absolute methanol and glacial acetic acid and then incubated with Hoescht stain (0.5 μg/ml Hoescht 33258 in PBS). After a 10 minute incubation in the dark, the staining solution was discarded, the chambers separating the wells of the culture slide were removed, and the slide was washed 3 times for 1 minute with deionized water. After washing, a few drops of Mcllvaine's buffer (0.021 M citric acid, 0.058 M Na2HPO4.7H2O; pH 5.6) was added to the cells and overlaid with a coverslip. The stained cells were viewed under a fluorescent microscope using a UV filter. Cells with brightly stained or fragmented nuclei were scored as apoptotic. A minimum of 200 cells were counted per well. The DeadEnd™ Fluorometric TUNEL (Promega) was also used to detect the DNA fragmentation that is a characteristic feature of apoptotic cells. Following Hoescht staining, the culture slide was washed briefly with distilled water, and further washed by immersing the slide twice for 5 minutes in PBS (137 mM NaCl, 2.68 mM KCl, 1.47 mM KH2PO4, 8.1 mM Na2HPO4), blotting the slide on paper towel between washes. The cells were permeabilized by immersing them in 0.2% Triton X-100 in PBS for 5 minutes. The cells were then washed again by immersing the slide twice for 5 minutes in PBS and blotting the slide on paper towel between washes. 25 μl of equilibration buffer [200 mM potassium cacodylate (pH 6.6), 25 mM. Tris-HCl (pH 6.6), 0.2 mM dithiothreitol, 0.25 mg/ml bovine serum albumin, and 2.5 mM cobalt chloride] was added per well and incubated for 5 to 10 minutes. […] Any cells with brightly stained or fragmented nuclei were scored as apoptotic. […]"}
{"substance": "siRNA #1: siRNA against human apoptosis-specific eIF-5A (SEQ ID NO:30); target 5′ AAAGGAATGACTTCCAGCTGA 3′ (SEQ ID NO: 81) (AAAGGAAUGACUUCCAGCUGATT; RNA, all phosphodiester, T or U not given here; listed as Homo sapiens)", "values": [{"measurement": "LC cells positive for TUNEL staining", "setting": "3 days after transfection", "result": 8, "unit": "%"}, {"measurement": "protection from apoptosis relative to the control siRNA", "setting": "TUNEL", "result": "greater than 80%"}]}
